Reference: EP4759814A1, “TRICYCLIC COMPOUND AND USE THEREOF AS MAT2A INHIBITOR” (SK Biopharmaceuticals Co., Ltd., priority 2023, dated 2025)
Read-outs that look alike come from different tables or passages of the source.

What was measured:
MAT2A = target: T1, MAT2A (Homo sapiens, UniProt P31153); test: MAT2A inhibitory activity, colorimetric phosphate detection (PiColorLock) enzyme assay; assay type: biochemical; conditions: Test Condition 1 or 2 (not stated which per compound); absorbance at 630 nm
T1 construct: purchased BPS Bioscience (USA) 71401
T1 sequence (P31153 whole entry): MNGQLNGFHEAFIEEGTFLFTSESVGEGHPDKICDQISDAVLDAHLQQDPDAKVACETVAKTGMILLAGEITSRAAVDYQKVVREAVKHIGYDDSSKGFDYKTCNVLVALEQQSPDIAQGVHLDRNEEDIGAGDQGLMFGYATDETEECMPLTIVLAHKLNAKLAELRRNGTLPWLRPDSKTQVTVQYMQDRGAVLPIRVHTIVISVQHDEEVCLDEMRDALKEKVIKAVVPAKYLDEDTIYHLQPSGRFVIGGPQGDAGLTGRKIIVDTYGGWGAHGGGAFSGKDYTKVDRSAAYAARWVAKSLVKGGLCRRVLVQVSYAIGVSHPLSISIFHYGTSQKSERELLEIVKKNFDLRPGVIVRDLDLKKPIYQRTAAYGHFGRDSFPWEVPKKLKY
Procedure: In vitro assay: Methionine and adenosine triphosphate (ATP) are converted into S-adenosylmethionine (SAM) and inorganic phosphate (pi) via the catalytic action of methionine adenosyltransferase 2A (MAT2A). The produced pi is detected by the PiColorLock™ Phosphate Detection Reagent, which is a colorimetric assay, and the activity of MAT2A can be evaluated according to the amount of pi generated during the enzyme reaction. Each compound was evaluated under Test Condition 1 or 2 as described below.
• Concentration of MAT2A inhibitor: maximum concentration of 50 µM, 5-fold dilution (7 groups in total) • MAT2A concentration: 12 ng/µL • ATP and Met concentration: 100 µM, 80 µM
• Concentration of MAT2A inhibitor: maximum concentration of 1 µM, 3-fold dilution (7 groups in total) • MAT2A concentration: 4 ng/µL • ATP and Met concentration: 300 µM, 150 µM • Reagents: Methionine (catalog number M5308) and ATP (catalog number A2383) were purchased from Sigma-Aldrich (USA). MAT2A (catalog number 71401) was purchased from BPS Bioscience (USA), and PiColorLock™ Phosphate Detection Reagent (catalog number 303-0030) was purchased from Novus (USA).
Assay buffer composition: 50 mM Tris-HCl pH 8.0, 50 mM KCI, 15 mM MgCl2, 0.3 mM EDTA, 0.005 % (w/v) BSA
Experimental procedure: Each compound was diluted 5-fold or 3-fold based on the maximum concentration (5 mM or 1 mM or 0.1 mM) using DMSO. The diluted compounds were diluted 20-fold using assay buffer, and then mixed at a volume ratio of 1:2 with MAT2A (30 ng/µL or 10 ng/µL) diluted with assay buffer and treated for 30 minutes at room temperature. The negative control group is a group untreated with both the MAT2A enzyme and the compound according to an embodiment of the present application, and the positive control group is a group treated only with the MAT2A enzyme and untreated with the compound according to an embodiment of the present application.
In each well of a 384-well plate, 30 µL of the mixed solution and 20 µL of a 1:1 mixed solution of ATP (0.5 mM or 1.5 mM) and Met (0.4 mM or 0.75 mM) were mixed and then treated for 1 hour at room temperature. After the enzyme reaction, 13 µL of a 100:1 mixed solution of PiColorLockTM and Accelerator was treated in each well and reacted for 5 minutes at room temperature. After treating 5 µL of Stabilizer in each well and reacting for 25 minutes at room temperature, the absorbance at 630 nm was measured using SpectraMax M4 (Molecular Devices, USA) to calculate the IC50 value of the compound.
Analysis method: The enzyme activity (%) of each experimental group was calculated as {(average O.D. of compound-treated group - average O.D. of negative control group)/(average O.D. of positive control group - average O.D. of negative control group)} * 100. After preparing a dose-response curve (4-parameter) using the enzyme activity according to the treatment concentration of each compound in GraphPad Prism 9, the 50 % of enzyme inhibitory activity value (IC50) was calculated through non-linear regression analysis. The IC50 results measured for the MAT2A activity inhibitory ability of the compounds according to an embodiment of the present application are shown in Table 2 (+++: more than 1 to 100 nM, ++: more than 100 to 1,000 nM, +: more than 1,000 to 10,000 nM, -: more than 10,000 nM).

[1] = tested on: HCT116 (MTAP WT) cell line; test: Cell proliferation inhibition in wild-type control cells, WST-1 assay; assay type: cell-based; conditions: maximum concentration 10 µM, read-out: HCT116 WT (IC50, cell proliferation inhibited by 50%)
Procedure: (§1) The HCT116 (MTAP del) cell line, which is a colorectal cancer cell line with deletion of MTAP gene, was treated with a compound according to an embodiment of the present application as a MAT2A inhibitor, and after culturing for 120 hours, the change in the number of cells was measured with a WST-1 assay reagent. The WST-1 assay is an assay that measures the number of cells by measuring the generation of a chromogenic substance called formazan from tetrazolium salts by intracellular mitochondrial dehydrogenase. In addition, as a control group, a wild-type colorectal cancer HCT116 (MTAP WT) cell line containing the MTAP gene was used to perform the experiment in the same manner as the experimental group.
(§2) Cell lines and reagents: HCT116 (MTAP WT (catalog number HD PAR-034), MTAP del (catalog number HD R02-033)) cell lines were purchased from Horizon Discovery (USA), and RPMI1640 medium (catalog number 22400-093), FBS (Fetal Bovine serum, catalog number 16000044), and Penicillin/Streptomycin (catalog number 15140-122) were purchased from GIBCO (USA). WST-1 (catalog number EZ-BULK150) was purchased from Dogen (Korea).
(§3) Experimental procedure: HCT116 (MTAP WT, MTAP del) cell lines were dispensed into a 96-well plate at a concentration of 1,000 cells/well in RPMI1640 culture medium containing 10% FBS and 1% Penicillin/Streptomycin, and allowed to attach for 24 hours. When the cells were attached to the plate, the drug was diluted 4-fold from a maximum concentration of 10 µM and treated on the cells. After 120 hours of drug treatment, 20 µL of WST-1 solution was treated for 2 hours, and absorbance at 450 nm was measured using SpectraMax M4 (Molecular Devices). Data analysis was calculated by taking the DMSO control group value as 100%. For the IC50 value, the concentration at which cell proliferation is inhibited by 50% was calculated through interpolation using a 4-parameter fit of the dose-response curve using the GraphPad Prism 8.4.3 program. The cancer cell proliferation inhibitory ability and selectivity in MTAP-deficient cancer cells of the compounds according to an embodiment of the present application are described in Table 3 (+++: 1 to 100 nM, ++: more than 100 to 1,000 nM, +: more than 1 to 10 µM, -: more than 10 µM).

[2] = tested on: HCT116 (MTAP del) cell line; test: Cell proliferation inhibition in MTAP-deficient cancer cells, WST-1 assay; assay type: cell-based; conditions: maximum concentration 10 µM, read-out: HCT116 MTAP^-/- (IC50, cell proliferation inhibited by 50%)
Procedure: as §1, §2, §3

[3] = Homo sapiens, HCT-116, 120 h, 120 hours of drug treatment
[4] = Homo sapiens, HCT-116, 120 hours of drug treatment

Row | Structure (SMILES) | IC50 (MAT2A) | IC50 ([1]; 120 hours of drug treatment) | IC50 ([2]; 120 hours of drug treatment) | IC50 [2, 3] | IC50 [1, 4] | IC50 [2, 4]
1 | Cc1ccccc1-n1c(=O)c2nccn2c2ccc(Cl)cc21 (atropisomer, axis not shown; (Ra)) [Example 20, (Ra)-7-chloro-5-(o-tolyl)imidazo[1,2-a]quinoxalin-4(5H)-one] | > 10000 nM | > 10000 nM | > 10000 nM |  |  | 
2 | Cc1ccccc1-n1c(=O)c2nccn2c2ccc(Cl)cc21 (atropisomer, axis not shown; (Sa)) [Example 21, (Sa)-7-chloro-5-(o-tolyl)imidazo[1,2-a]quinoxalin-4(5H)-one] | 1 to 100 nM | > 10000 nM | 1 to 100 nM |  |  | 
3 | Cc1ncccc1-n1c(=O)c2nccn2c2cc(Cl)c(Br)cc21 (atropisomer, axis not shown; (Sa)) [Example 81, (Sa)-7-bromo-8-chloro-5-(2-methylpyridin-3-yl)imidazo[1,2-a]quinoxalin-4(5H)-one] |  | 1000 to 10000 nM |  | 1 to 100 nM |  | 
4 | Cc1cc2c(cc1C(F)(F)F)n(-c1cccnc1C)c(=O)c1nccn12 (atropisomer, axis not shown; (Sa)) [Example 95, (Sa)-8-methyl-5-(2-methylpyridin-3-yl)-7-(trifluoromethyl)imidazo[1,2-a]quinoxalin-4(5H)-one] |  | > 10000 nM |  | 1 to 100 nM |  | 
5 | Cc1ncccc1-n1c(=O)c2nccn2c2cc(Cl)c(C(F)(F)F)cc21 (atropisomer, axis not shown; (Sa)) [Example 98, (Sa)-8-chloro-5-(2-methylpyridin-3-yl)-7-(trifluoromethyl)imidazo[1,2-a]quinoxalin4(5H)-one] |  | > 10000 nM |  | 1 to 100 nM |  | 
6 | CCc1ncccc1-n1c(=O)c2nccn2c2cc(Cl)c(C(F)(F)F)cc21 (atropisomer, axis not shown; (Sa)) [Example 112, (Sa)-8-chloro-5-(2-ethylpyridin-3-yl)-7-(trifluoromethyl)imidazo[1,2-a]quinoxalin4(5H)-one] |  |  |  | > 10000 nM |  | 
7 | Cc1ccccc1-n1c(=O)c2nccn2c2ccc(Cl)cc21 [Example 1, 7-chloro-5-(o-tolyl)imidazo[1,2-a]quinoxalin-4(5H)-one] | 100 to 1000 nM |  |  |  | > 10000 nM | 100 to 1000 nM
8 | O=c1c2nccn2c2ccc(Cl)cc2n1-c1ccccc1 [Example 2, 7-chloro-5-phenylimidazo[1,2-a]quinoxalin-4(5H)-one] | 100 to 1000 nM |  |  |  | > 10000 nM | 1000 to 10000 nM
9 | CCc1ccccc1-n1c(=O)c2nccn2c2ccc(Cl)cc21 [Example 3, 7-chloro-5-(2-ethylphenyl)imidazo[1,2-a]quinoxalin-4(5H)-one] | 100 to 1000 nM |  |  |  | > 10000 nM | 100 to 1000 nM
10 | Cc1cccc(-n2c(=O)c3nccn3c3ccc(Cl)cc32)c1C [Example 4, 7-chloro-5-(2,3-dimethylphenyl)imidazo[1,2-a]quinoxalin-4(5H)-one] | 100 to 1000 nM |  |  |  | > 10000 nM | 100 to 1000 nM
11 | CC(C)c1ccccc1-n1c(=O)c2nccn2c2ccc(Cl)cc21 [Example 5, 7-chloro-5-(2-isopropylphenyl)imidazo[1,2-a]quinoxalin-4(5H)-one] | 100 to 1000 nM |  |  |  | > 10000 nM | 1000 to 10000 nM
12 | Cc1c(F)cccc1-n1c(=O)c2nccn2c2ccc(Cl)cc21 [Example 6, 7-chloro-5-(3-fluoro-2-methylphenyl)imidazo[1,2-a]quinoxalin-4(5H)-one] | 100 to 1000 nM |  |  |  | 1000 to 10000 nM | 100 to 1000 nM
13 | O=c1c2nccn2c2ccc(Cl)cc2n1-c1ccccc1C(F)(F)F [Example 7, 7-chloro-5-(2-(trifluoromethyl)phenyl)imidazo[1,2-a]quinoxalin-4(5H)-one] | 100 to 1000 nM |  |  |  | > 10000 nM | 1000 to 10000 nM
14 | Cc1cc(F)ccc1-n1c(=O)c2nccn2c2ccc(Cl)cc21 [Example 8, 7-chloro-5-(4-fluoro-2-methylphenyl)imidazo[1,2-a]quinoxalin-4(5H)-one] | 1000 to 10000 nM |  |  |  | > 10000 nM | > 10000 nM
15 | Cc1ccc(F)cc1-n1c(=O)c2nccn2c2ccc(Cl)cc21 [Example 9, 7-chloro-5-(5-fluoro-2-methylphenyl)imidazo[1,2-a]quinoxalin-4(5H)-one] | > 10000 nM |  |  |  | > 10000 nM | > 10000 nM
16 | Cc1c(F)cccc1-n1c(=O)c2nccn2c2ccc(C(F)(F)F)cc21 [Example 10, 5-(3-fluoro-2-methylphenyl)-7-(trifluoromethyl)imidazo[1,2-a]quinoxalin-4(5H)-one] | 1 to 100 nM |  |  |  | 100 to 1000 nM | 1 to 100 nM
17 | Cc1c(Cl)cccc1-n1c(=O)c2nccn2c2ccc(Cl)cc21 [Example 11, 7-chloro-5-(3-chloro-2-methylphenyl)imidazo[1,2-a]quinoxalin-4(5H)-one] | 100 to 1000 nM |  |  |  | 100 to 1000 nM | 1 to 100 nM
18 | Cc1c(F)cccc1-n1c(=O)c2nccn2c2ccc(C3CC3)cc21 [Example 13, 7-cyclopropyl-5-(3-fluoro-2-methylphenyl)imidazo[1,2-a]quinoxalin-4(5H)-one] | 100 to 1000 nM |  |  |  | > 10000 nM | 100 to 1000 nM
19 | COc1ccc2c(c1)n(-c1cccc(F)c1C)c(=O)c1nccn12 [Example 14, 5-(3-fluoro-2-methylphenyl)-7-methoxyimidazo[1,2-a]quinoxalin-4(5H)-one] | 100 to 1000 nM |  |  |  | > 10000 nM | 100 to 1000 nM
20 | Cc1c(F)cccc1-n1c(=O)c2nccn2c2ccc(OC(F)(F)F)cc21 [Example 15, 5-(3-fluoro-2-methylphenyl)-7-(trifluoromethoxy)imidazo[1,2-a]quinoxalin-4(5H)-one] | 1000 to 10000 nM |  |  |  | > 10000 nM | 100 to 1000 nM
